Test results from ChEMBL document CHEMBL1137000, “Synthesis and antibacterial activity of some novel imidazole-based dicationic quinolinophanes” (2009).
Values after ≈ are worked out from the molar mass of the structure shown.

Assays:
Format in all cases: functional
Shigella sp. = test: Antibacterial activity against Shigella sp. after 48 hrs by agar well diffusion method
Klebsiella pneumoniae = test: Antibacterial activity against Klebsiella pneumoniae after 48 hrs by agar well diffusion method
Staphylococcus aureus = test: Antibacterial activity against Staphylococcus aureus after 48 hrs by agar well diffusion method
Vibrio cholerae = test: Antibacterial activity against Vibrio cholerae after 48 hrs by agar well diffusion method
Pseudomonas aeruginosa = test: Antibacterial activity against Pseudomonas aeruginosa after 48 hrs by agar well diffusion method
Escherichia coli = test: Antibacterial activity against Escherichia coli after 48 hrs by agar well diffusion method

Compound | MIC (Shigella sp.) | MIC (Klebsiella pneumoniae) | MIC (Staphylococcus aureus) | MIC (Vibrio cholerae) | MIC (Pseudomonas aeruginosa) | MIC (Escherichia coli)
[Br-].[Br-].c1cc2nc(c1)C[n+]1ccn(c1)Cc1cc3ccccc3nc1Oc1ccc3ccccc3c1-c1c(ccc3ccccc13)Oc1nc3ccccc3cc1Cn1cc[n+](c1)C2 | 10 µg/mL | 15 µg/mL | 15 µg/mL | 10 µg/mL | 20 µg/mL | 10 µg/mL
CN[C@@H]1[C@H](O[C@H]2[C@H](O[C@H]3[C@H](O)[C@@H](O)[C@H](N=C(N)N)[C@@H](O)[C@@H]3N=C(N)N)O[C@@H](C)[C@]2(O)C=O)O[C@@H](CO)[C@H](O)[C@H]1O [STREPTOMYCIN] | 25 µg/mL (≈ 43 µM) | 25 µg/mL (≈ 43 µM) | 25 µg/mL (≈ 43 µM) | 25 µg/mL (≈ 43 µM) | 45 µg/mL (≈ 77.4 µM) | 20 µg/mL (≈ 34.4 µM)
[Br-].[Br-].c1cc2cc(c1)C[n+]1cn(c3ccccc31)Cc1cc3ccccc3nc1Oc1ccc3ccccc3c1-c1c(ccc3ccccc13)Oc1nc3ccccc3cc1Cn1c[n+](c3ccccc31)C2 | 10 µg/mL | 15 µg/mL | 15 µg/mL | 10 µg/mL | 25 µg/mL | 15 µg/mL
[Br-].[Br-].c1cc2cc(c1)C[n+]1ccn(c1)Cc1cc3ccccc3nc1Oc1ccccc1Oc1nc3ccccc3cc1Cn1cc[n+](c1)C2 | 45 µg/mL | 40 µg/mL | 45 µg/mL | 35 µg/mL | 30 µg/mL | 30 µg/mL
[Br-].[Br-].c1cc2nc(c1)C[n+]1ccn(c1)Cc1cc3ccccc3nc1Oc1ccccc1Oc1nc3ccccc3cc1Cn1cc[n+](c1)C2 | 25 µg/mL | 25 µg/mL | 30 µg/mL | 15 µg/mL | 25 µg/mL | 20 µg/mL
[Br-].[Br-].c1cc2nc(c1)C[n+]1cn(c3ccccc31)Cc1cc3ccccc3nc1Oc1ccccc1Oc1nc3ccccc3cc1Cn1c[n+](c3ccccc31)C2 | 40 µg/mL | 45 µg/mL | 35 µg/mL | 30 µg/mL | 25 µg/mL | 35 µg/mL
[Br-].[Br-].c1cc2cc(c1)C[n+]1ccn(c1)Cc1cc3ccccc3nc1Oc1ccc3ccccc3c1-c1c(ccc3ccccc13)Oc1nc3ccccc3cc1Cn1cc[n+](c1)C2 | 15 µg/mL | 10 µg/mL | 15 µg/mL | 10 µg/mL | 25 µg/mL | 20 µg/mL
[Br-].[Br-].c1cc2nc(c1)C[n+]1cn(c3ccccc31)Cc1cc3ccccc3nc1Oc1ccc3ccccc3c1-c1c(ccc3ccccc13)Oc1nc3ccccc3cc1Cn1c[n+](c3ccccc31)C2 | 45 µg/mL | 30 µg/mL | 45 µg/mL | 45 µg/mL | 20 µg/mL | 30 µg/mL
[Br-].[Br-].c1cc2cc(c1)C[n+]1cn(c3ccccc31)Cc1cc3ccccc3nc1Oc1ccccc1Oc1nc3ccccc3cc1Cn1c[n+](c3ccccc31)C2 | 55 µg/mL | 60 µg/mL | 45 µg/mL | 25 µg/mL | 40 µg/mL | 30 µg/mL
